Assays:
Type in all cases: cell-based
[1] = test system: Trypanosoma brucei rhodensiense (STIB 900 strain); assay: African trypanosome protozoa growth inhibition screening test; conditions: chemotherapy index = EC50 rat L6 cells / EC50 African trypanosome protozoa
[2] = test system: Trypanosoma brucei rhodensiense (STIB 900 strain); assay: as above; conditions: Trypanosoma brucei, STIB900; STIB 900 strain, blood stream form, 72 hours, Alamar Blue; read-out: 50% growth inhibiting concentration Trypanosoma brucei rhod.
Description: In the present example, protozoa of Trypanosoma brucei rhodensiense (STIB 900 strain), a trypamastigote living in blood stream, was used. The medium used in the experiment was a MEM medium which was sterilized with a filter and supplemented with 25 mM N-2-hydroxyethylpiperazine-2-ethansulfonic acid […]), 1 g/L glucose, 1% MEM non-essential amino acid, 0.2 mM 2-mercaptoethanol, 2 mM sodium pyruvate, 0.1 mM hypoxanthine, and 15% heat-treated horse serum. The protozoa was cultured in an atmosphere of CO2 concentration 5%, at a temperature of 37° C.
The compounds of the present invention to be used in the present test and the positive target drug (melarsoprol) were dissolved in DMSO to make a test solution of a predetermined concentration. A medium containing 8×10^3 protozoa, and a test solution containing a drug of a predetermined concentration or a drug-free DMSO were added to wells of a 96-well culture plate, and subsequently, medium was added so that the amount in each well becomes 100 μL. Test solutions were taken by duplicates. After culturing the culture plate for 72 hours in an incubator, growth inhibition activity was tested. Test was conducted as follows. 10 μL of Alamar Blue aqueous solution was added to each well, and the resultant was further cultured for 2 hours. Next, the culture plate was placed on a fluorescent micro-plate reader (Spectramax Gemeni XS; US Molecular Device), radiated at an excited wavelength of 536 nm. Fluorescent intensity was measured at 588 nm, to calculate the trypanosome protozoa infected rate of the test solution added-group, and of the control group. From the protozoan infection rate obtained in the above, growth inhibition rate was calculated with the following formula, to obtain a 50% growth inhibition concentration (EC50). Growth inhibition rate (%)={1−(b−a)/(c−a)}×100 a: early infection rate b: infection rate when test solution was added c: infection rate of the control

[3] = test system: Trypanosoma cruzi (Tulahuen C2C4 strain); assay: American trypanosome protozoa growth inhibition screening test; conditions: for EC50: Trypanosoma cruzi, Tulahuen C2C4 strain in rat L6 cells, 96 hours, CPRG/Nonidet, read-out: 50% growth inhibition concentration Trypanosoma cruzi; for Selective toxicity: chemotherapy index = EC50 rat L6 cells / EC50 American trypanosome protozoa
Description: In the present example, amastigote and trypomastigote infected with rat L6 cells of protozoa of Trypanosoma cruzi (Tulahuen C2C4 strain) were used. As medium used in the test, RPMI 1640 medium containing L6 cells was supplemented so that L-glutamine (200 mM) becomes 1%, fetal bovine serum becomes 10%, which was cultured under CO2 concentration 5%, at 37° C.
The compounds of the present invention to be used in the test and the positive target agent (benznidazole) were dissolved in DMSO to make a test solution of a predetermined concentration. A medium containing 5×10^3 protozoa was added to wells of a 96-well culture plate, and pre-cultured for 48 hours. After replacing the medium, test solution containing drug of a predetermined concentration or a drug-free DMSO was added. Test solutions were taken by duplicates. After culturing the culture plate in an incubator for 96 hours, growth inhibition activity was tested. Test was conducted as follows.
50 μL of CPRG/Nonidet was added to each well, and allowed to rest for 2 to 6 hours. Next, the culture plate was placed on a fluorescent micro-plate reader, and the absorbance was measured at 540 nm. Growth inhibition rate was calculated with the following formula based on the protozoan infection rate which was obtained by calculating trypanosome infection rate of the test solution added group and control group, to obtain a 50% growth inhibition concentration (EC50). Growth inhibition rate (%)={1−(b−a)/(c−a)}×100 a: early infection rate b: infection rate when test solution was added c: infection rate of the control

[4] = Growth inhibition test of rat L6 cells; conditions: L6 cells (rat skeletal myoblast), Alamar Blue (Table 2), read-out: 50% growth inhibition concentration Cytotoxicity L6
Description: Rat derived-L6 cells (rat skeletal myoblast cell) were used. As medium, RPMI1640 medium was supplemented so that L-glutamin (200 mM) is 1%, and fetal bovine serum 10%, and the medium was cultured under CO2 concentration 5%, at 37° C. The compounds of the present invention and the target drugs to be used in the test were dissolved in DMSO, to make a test solution of a predetermined concentration. Pre-culture was conducted and medium containing cells which have entered the logarithmic growth phase was taken to wells of a 96-well culture plate. Then, a test solution containing drug of a predetermined concentration or a drug-free DMSO was added. Test solutions were taken by duplicates. Culture plate was cultured for 72 hours in an incubator, to test the growth inhibition activity. Test was conducted as follows.
10 μl of Alamar Blue aqueous solution was added to each well, and the resultant was further cultured for 2 hours. Next, the culture plate was placed on a fluorescent micro-plate reader (Spectramax Gemeni XS; US Molecular Device), radiated at an excited wavelength of 536 nm. Fluorescent intensity was measured at 588 nm, and residual rate of L6 cells of the test solution added group, and that of the control was calculated. Based on the cell residual rate obtained in the above, growth inhibition rate to L6 cells was calculated, to obtain a 50% growth inhibition concentration (EC50). Growth inhibition rate (%)={(C−A)/(B−A)}×100 A: primary cell count B: cell count of control, 3 days after C: cell count of wells added with a sample, 3 days after […]

[5] = test system: Leishmania donovani (MHOM/ET/67/L82 strain); assay: Leishmania protozoa growth inhibition screening test; conditions: chemotherapy index = EC50 rat L6 cells / EC50 leishmania protozoa

**Q.** For `CCN1C(C)=CS/C1=C\C=c1/s/c(=C\c2sc3ccccc3[n+]2CC)n(CC)c1=O` [A-15], which Selective toxicity [1] is on record?
**A.** The Selective toxicity was 250.

**Q.** And the EC50 [2]?
**A.** The EC50 was 89 nM.

**Q.** And the EC50 [3]?
**A.** The EC50 was 980 nM.

**Q.** And the Selective toxicity [3]?
**A.** Its Selective toxicity is 22.

**Q.** What about the EC50 at 72 h [4] of the same compound?
**A.** Its EC50 at 72 h is 22000 nM.

**Q.** What about the Selective toxicity [5] of the same compound?
**A.** The Selective toxicity was 130.

**Q.** For `CCN1/C(=C/C=c2\s/c(=C\C3=[N+](CC)CCS3)n(CC)c2=O)C=Cc2ccccc21` [A-10], which Selective toxicity [1] is on record?
**A.** Its Selective toxicity is 100.

**Q.** And the EC50 [2]?
**A.** The EC50 was 200 nM.

**Q.** What about the EC50 [3] of the same compound?
**A.** Its EC50 is 160 nM.

**Q.** What about the Selective toxicity [3] of the same compound?
**A.** The Selective toxicity was 130.

**Q.** And the EC50 at 72 h [4]?
**A.** The EC50 at 72 h was 20000 nM.

**Q.** What about the Selective toxicity [5] of the same compound?
**A.** The Selective toxicity was 130.

**Q.** Which Selective toxicity [1] does the source give for `CCN1/C(=C/C=c2\s/c(=C\c3sc4c5ccccc5ccc4[n+]3CC)n(CC)c2=O)Sc2ccc3ccccc3c21` [A-1] here?
**A.** The Selective toxicity was 1900.

**Q.** And the EC50 [2]?
**A.** The EC50 was 16 nM.

**Q.** What about the EC50 [3] of the same compound?
**A.** The EC50 was 5100 nM.

**Q.** And the Selective toxicity [3]?
**A.** The Selective toxicity was 5.9.

**Q.** And the EC50 at 72 h [4]?
**A.** The EC50 at 72 h was 30000 nM.

**Q.** What about the Selective toxicity [5] of the same compound?
**A.** Its Selective toxicity is 3600.

Reference: patent US8193224B2, “Medicinal composition for prevention or treatment of parasitic protozoan infection” (Fujifilm Corporation, priority 2004, dated 2012)
